Data taken from patent publication US9198907B2, “Combinations of a HCV inhibitor such as bicyclic pyrrole derivatives and a therapeutic agent” (PTC Therapeutics, Inc., priority 2009, dated 2015).

System: HCV replicon RNA in replicon cells
Test: Replicon RNA response to antiviral agent(s), replicon RNA level by real time PCR (Taqman assay)
Assay type: cell-based
Method: Replicon cells were seeded at ˜5000 cells/well in 96-well collagen I-coated Biocoat plates (Becton Dickinson). At 24 hrs post-seeding, a series of replicon cells were treated with a HCV protease inhibitor and a HCV inhibitor. The final concentration of DMSO was 0.5%, fetal bovine serum was 10%, and G418 (an aminoglycoside used as a selective agent) was 500 μg/mL.
To each concentration of Compound 10p, HCV inhibitor Compound 22 was titrated. After 3 days, the cells were washed with PBS and lysed in 1× Cell Lysis Buffer (Ambion cat #8721).
The replicon RNA level was measured using real time PCR (Taqman assay). The ampicon was located in NS5b. The PCR primers used were: 5B.2F, ATGGACAGGCGCCCTGA (SEQ ID NO: 1); 5B.2R, […] (SEQ ID NO: 2); the probe sequence was FAM-labeled CACGCCATGCGCTGCGG (SEQ ID NO: 3). GAPDH RNA was used as endogenous control and was amplified in the same reaction as NS5b (multiplex PCR) using primers and VIC-labeled probe recommended by the manufacturer (PE Applied Biosystem). The real-time RT-PCR reactions were run on ABI PRISM 7900HT Sequence Detection System using the following program: 48° C. for 30 min, 95° C. for 10 min, 40 cycles of 95° C. for 15 sec, 60° C. for 1 min. The ΔCT values (CT5B-CTGAPDH) were plotted against test compound concentration and fitted to the sigmoid dose response model using Graphpad PRISM software (Graphpad Software Inc.). The half maximal inhibitory concentration (IC50) is the concentration necessary to achieve ΔCT=1 over the projected baseline. The 90% maximal inhibitory concentration (IC90) is the concentration necessary to achieve ΔCT=3.2 over the baseline. Alternatively, to quantitate the absolute amount of replicon RNA, a standard curve was established by including serially diluted T7 transcripts of replicon RNA in the Taqman assay. All Taqman reagents were from PE Applied Biosystem.

| Compound | relative inhibition (logarithmic scale) of replicon RNA (Cpd 10p 0.15 μM, Compound 22 0 μM, replicon cells treated 3 days) | relative inhibition (logarithmic scale) of replicon RNA (Cpd 10p 1.2 μM, Compound 22 0 μM, replicon cells treated 3 days) | relative inhibition (logarithmic scale) of replicon RNA (combination: Compound 22 0.045 μM + Cpd 10p 0.15 μM, 3 days) | relative inhibition (logarithmic scale) of replicon RNA (combination: Compound 22 0.045 μM + Cpd 10p 1.2 μM, 3 days) | relative inhibition (logarithmic scale) of replicon RNA (combination: Compound 22 0.405 μM + Cpd 10p 0.15 μM, 3 days) | relative inhibition (logarithmic scale) of replicon RNA (combination: Compound 22 0.405 μM + Cpd 10p 1.2 μM, 3 days) |
| --- | --- | --- | --- | --- | --- | --- |
| CC(C)(C)NC(=O)N[C@H](C(=O)N1C[C@H]2[C@@H]([C@H]1C(=O)NC(CC1CCC1)C(=O)C(N)=O)C2(C)C)C(C)(C)C (stereo partly drawn) [Cpd 10p, (1R,2S,5S)-N-(4-amino-1-cyclobutyl-3,4-dioxobutan-2-yl)-3-((S)-2-(3-tert-butylureido)-3,3-dimethylbutanoyl)-6,6-dimethyl-3-azabicyclo[3.1.0]hexane-2-carboxamide, reference compound] | −0.74 | −1.72 |  |  |  |  |
| COc1cnc2c(c1)c(C#N)c(-c1ccc(S(=O)(=O)N[C@@H](C)C(F)(F)F)cn1)n2C1CCC1 [Cpd 22, 6-(3-cyano-1-cyclobutyl-5-methoxy-1H-pyrrolo[2,3-b]pyridin-2-yl)-N-[(2S)-1,1,1-trifluoropropan-2-yl]pyridine-3-sulfonamide] |  |  | −1.09 | −1.77 | −1.45 | −1.91 |
